Measurements reported in the NIST ThermoML archive (doi:10.1016/j.jct.2011.08.016).

Assay: xn = mol fraction of the nth substance listed
Conditions: Liquid, Vibrating tube method

CCCCCCCCCC [decane] + CCCCCCC
mass density [kg/m3]
Conditions | x2 = 0.0531 | x2 = 0.2594 | x2 = 0.5219 | x2 = 0.777 | x2 = 0.952
343.09 K, 1000 kPa | 690.42 | – | 670.9 | 656.56 | –
343.09 K, 2000 kPa | 691.49 | – | 672.01 | 657.76 | –
343.09 K, 3000 kPa | 692.55 | – | 673.08 | 658.95 | –
343.09 K, 4000 kPa | 693.59 | – | 674.15 | 660.13 | –
343.09 K, 5000 kPa | 694.62 | – | 675.24 | 661.28 | –
343.09 K, 6000 kPa | 695.63 | – | 676.3 | 662.42 | –
343.09 K, 7000 kPa | 696.62 | – | 677.39 | 663.56 | –
343.09 K, 8000 kPa | 697.6 | – | 678.46 | 664.71 | –
343.09 K, 9000 kPa | 698.57 | – | 679.53 | 665.84 | –
343.09 K, 10000 kPa | 699.52 | – | 680.57 | 666.95 | –
343.09 K, 11000 kPa | 700.46 | – | 681.55 | 668.04 | –
343.09 K, 12000 kPa | 701.38 | – | 682.56 | 669.13 | –
343.09 K, 13000 kPa | 702.3 | – | 683.57 | 670.2 | –
343.09 K, 14000 kPa | 703.21 | – | 684.56 | 671.24 | –
343.09 K, 15000 kPa | 704.09 | – | 685.54 | 672.27 | –
343.09 K, 16000 kPa | 704.98 | – | 686.5 | 673.29 | –
343.09 K, 17000 kPa | 705.84 | – | 687.45 | 674.28 | –
343.09 K, 18000 kPa | 706.7 | – | 688.39 | 675.26 | –
343.09 K, 19000 kPa | 707.54 | – | 689.28 | 676.22 | –
343.09 K, 20000 kPa | 708.37 | – | 690.16 | 677.14 | –
343.09 K, 21000 kPa | 709.2 | – | 691.02 | 678.06 | –
343.09 K, 22000 kPa | 710 | – | 691.87 | 678.95 | –
343.09 K, 23000 kPa | 710.8 | – | 692.69 | 679.82 | –
343.09 K, 24000 kPa | 711.58 | – | 693.49 | 680.67 | –
343.09 K, 25000 kPa | 712.36 | – | 694.29 | 681.49 | –
343.11 K, 1000 kPa | – | 682.79 | – | – | 645.16
343.11 K, 2000 kPa | – | 683.83 | – | – | 646.47
343.11 K, 3000 kPa | – | 684.89 | – | – | 647.73
343.11 K, 4000 kPa | – | 685.87 | – | – | 649
343.11 K, 5000 kPa | – | 686.9 | – | – | 650.27
343.11 K, 6000 kPa | – | 687.93 | – | – | 651.49
343.11 K, 7000 kPa | – | 688.92 | – | – | 652.71
343.11 K, 8000 kPa | – | 689.92 | – | – | 653.91
343.11 K, 9000 kPa | – | 690.94 | – | – | 655.08
